Results: paper PMC8207694, “Nucleoside transporter-guided cytarabine-conjugated liposomes for intracellular methotrexate delivery and cooperative choriocarcinoma therapy” (Journal of Nanobiotechnology, 2021)

Experiments:
[1] = Biodistribution of MTX in tumor-bearing mice; format: in vivo; details: 2 h post-treatment
Protocol: JEG-3 tumor-bearing mice were also used for organ distribution studies. Animal groups and dosage were consistent with pharmacokinetic studies. For bio-distribution studies of MTX formulations, three animals per group were sacrificed at 2, 8, and 24 h following treatment, and tumors, lungs, kidneys, hearts, livers, and spleens were isolated, weighed, and frozen. These tissues were then homogenized, spun down for 1 min, rested for 45 min, and combined with 100 µl of 10% trichloroacetic acid solution followed by vortexing for 1 min, adding 5 mL of acetonitrile, and incubating for 10 min. Samples were then spun down for 10 min at 6,000 rpm, and supernatants were isolated, combined with mobile phase, and passed through 0.22 µm membrane filters. Finally, HPLC was applied to estimate the drug content of samples.

[2] = Safety: body weight and H&E of primary organs during antitumor study; format: in vivo, mice
Protocol: Healthy mice were administered the Lipo@MTX or Cy-Lipo@MTX dispersion via tail vein (10 mg MTX-equivalent/kg body weight every three days) for five times (each group contained 3 mice). Saline was injected as a control. After the administration, blood biochemical indices were measured. During the in vivo antitumor studies, the body weight and activity status of mice in each group were monitored for evaluating the side effects of the MTX formulations. After in vivo antitumor studies, the primary organs of each group were harvested for H&E staining.

[3] = set-up: method as in PMID 22510625; details: liver damage, abdominal pain, gastrointestinal reactions, mucosal damage, bone marrow suppression; cited from earlier work

CN(Cc1cnc2nc(N)nc(N)c2n1)c1ccc(C(=O)N[C@@H](CCC(=O)O)C(=O)O)cc1 [free MTX, Methotrexate]
main organs of MTX distribution [1]: found in the kidneys and liver | H&E-stained slices of major organs ([2]; end of treatment): many edematous glomeruli | body weight change during treatment ([2]; tumor-bearing mice, 5 mg MTX-equivalent/kg): severe weight loss | incidence rate of adverse reactions during systemic administration [3]: more than 30%
